Literature values in US20030175285A1, “Molecule of pharmaceutical interest comprising at its n-terminal a glutamic acid or a glutamine in the form of a physiologically acceptable strong acid” (priority 2000, published 2003).
Ends that are not written are not given here.

Assays:
[1] = tested on: melanoma; settings: acetate form, patients suffering from a melanoma
[2] = acetate form
[3] = tested on: osteoblasts and chondrocytes; settings: trifluoroacetate form

Substance	clinical antitumor effect [1]	required storage temperature [2]	toxicity for cells in culture [3]
EVDPIGHLY [MAGE-3]	tumor regression	−80 °C	–
Calcitonin	–	–	toxic
Amylin: synthetic peptide in trifluoroacetate form (KCNTATCATQRLANFLVHSSNNFGAILSSTNVGSNTY; cysteine pairing not given here; also: trifluoroacetate salt; UniProt P10997 34-70, looked up)	–	–	toxic
